Measured values published in patent publication US12280047B2, “Treatment of aneurysms” (Georgia State Research Foundation, Inc., priority 2017, dated 2025).

Experiments:
ApoE−/− mice [1] = test: OMBA, NBA and 1MT treating AngII-induced abdominal aortic aneurysm (Example 15); type: in vivo; settings: for Incidence of AAA: ApoE−/− mice, AngII 1,000 ng/kg/min four weeks, then drug in drinking water 6 weeks, mice with AAA/group size
Protocol: To test the effect of other Kynurenine pathway inhibitors on treating AngII-induced abdominal aortic aneurysm, male ApoE^−/− mice at age 8 weeks were infused with AngII (1,000 ng/kg/min) or saline (0.9% sodium chloride) by Alzet osmotic pumps for four weeks. Four weeks later, Ang-II treated mice were divided into […] groups of 18 and administered o-methoxybenzo ylalanine (OMB), (m-nitrobenzoyl)alanine (NBA), 1-methyltryptophan (1MT) or vehicle control (water) by drinking water for 6 weeks.
To quantify AAA incidence and size, the maximum width of abdominal aorta was measured with Image Pro Plus software (Media Cybernetics). Aneurysm incidence was quantified based on a definition of aneurysm as an external width of the suprarenal aorta that was increased by 50% or greater compared with aortas from saline-infused mice. The average diameter of the normal suprarenal aorta in control mice is 0.8 mm. Therefore, a threshold of 1.22 mm as evidence of aneurysm formation was set. […] Incidence of AAA among the various groups of mice is outlined in FIG. 31A and Table 5 below.

MMP2 [2] = test: MMP2 expression and activity in aortas of 3-HAA-injected mice; type: in vivo; settings: 3-HAA 200 mg/kg/d i.p., 6 weeks; ApoE−/− and ApoE−/−/IDO−/− mice; vs vehicle-treated mice
Protocol: ApoE^−/− and ApoE^−/−/IDO^−/− mice at age 8 weeks on a chow diet were intraperitoneally injected with 3-HAA (200 mg/kg. d) or vehicle for 6 weeks. 3-HAA was dissolved in […] and further diluted in Captisol (Captisol Technology).
Circ Res. (2014) 114:480-92.
The evaluation of MMP activities in cells and aortas was performed as described previously in: Satoh K, et al., Cyclophilin A enhances vascular oxidative stress and the development of angiotensin II-induced aortic aneurysms. Nat Med. (2009) 15:649-56; Becerra A, et al., Increased activity of indoleamine 2,3-dioxygenase in serum from acutely infected dengue patients linked to gamma interferon antiviral function. J Gen Virol. (2009) 90:810-7; Holmes E W. Determination of serum kynurenine and hepatic tryptophan dioxygenase activity by high-performance liquid chromatography. Anal Biochem. (1988) 172:518-25; Forrest C M, et al., Kynurenine pathway metabolism in patients with osteoporosis after 2 years of drug treatment. Clin Exp Pharmacol Physiol. […]
To ascertain the effect of 3-HAA in MMP2 expression in vivo, ApoE^−/− and ApoE^−/−/IDO^−/− mice were intra-peritoneally treated with vehicle or 3-HAA (200 mg/kg/d) for 6 weeks. Corresponding increases in 3-HAA were detected in the plasma (FIG. 6F) and aortas (FIGS. 6D and 6E) of 3-HAA-injected ApoE^−/− and ApoE^−/−/IDO^−/− mice. […]

HASMCs = test: MMP2 expression and activity in HASMCs incubated with metabolites of Trp degradation; type: cell-based, human
From the text: J Immunol. […] Neuropharmacology. […] Proc Natl Acad Sci USA.

MMP2 [3] = test: MMP2 in isolated mouse aortas incubated with 3-HAA ex vivo; settings: 400 μM 3-HAA, 48 hours, aortas from ApoE−/− and ApoE−/−/IDO−/− mice
ApoE−/− mice [4] = test: Serum kynurenine pathway metabolites in AngII mice treated with OMBA, NBA, 1MT (Example 15); type: in vivo
Protocol: The culture medium was centrifuged to pellet the cells to avoid contamination from the cells, and the supernatant was filtered ([…]) before use. Sample preparation for plasma was operated as described previously (Becerra A, et al., Increased activity of indoleamine 2,3-dioxygenase in serum from acutely infected dengue patients linked to gamma interferon antiviral function. J Gen Virol. (2009) 90:810-7; Holmes E W. Determination of serum kynurenine and hepatic tryptophan dioxygenase activity by high-performance liquid chromatography. Anal Biochem. (1988) 172:518-25). 200 μL of plasma was mixed by vortex in a small polyethylene conical tube with 1/10 volume of ice cold 2.4 mol/L perchloric acid. The cloudy suspension was chilled on ice for 15 min and then centrifuged at 10,000 g for 2 min. The clear protein-free supernatant was analyzed directly.
Circ Res. (2014) 114:480-92. Kyn content was estimated along with standards ranging from 0.5-20 μM L-kynurenine (Sigma, K8625), and Trp level was assessed along standards ranging from 1-25 μM DL-Tryptophan (Sigma, 162698), using a GraceVydac C18 column (250×4.6 mm, 5.0 The mobile phase was 20 mM sodium acetate at pH=4.5. The flow rate was 1 ml/min. The column effluent was monitored at 360 nm (Kyn) and 280 nm (Trp) by a UV detector.
3-HAA was measured by HPLC as described previously in Forrest C M, et al., Kynurenine pathway metabolism in patients with osteoporosis after 2 years of drug treatment. Clin Exp Pharmacol Physiol. (2006) 33:1078-87. 3-HAA content was estimated along with standards ranging from 1-200 nM 3-Hydroxyanthranilic acid (Santa Cruz, sc-216460), using a GraceVydac C18 column (250×4.6 mm, 5.0 The mobile phase consisted of 25 mM sodium acetate (pH=5.5) and methanol (90:10 v/v) was pumped at a flow rate of 1 ml/min. Fluorescent detection at excitation 320 nm and emission 420 was used. […]

[5] = concentration- and time-dependent manner

## Cn1cc(C[C@H](N)C(=O)O)c2ccccc21 [1MT, 1-methyltryptophan]
ApoE−/− mice [1]
  Incidence of AAA: 9/18

## Nc1c(O)cccc1C(=O)O [3-HAA, 3-Hydroxyanthranilic acid]
MMP2 [2]
  MMP2 expression and activity in aortas: remarkably increased
HASMCs; 48 hours, Kyn 100 μM, 3-HK 100 μM, KA 75 μM, AA 100 μM, 3-HAA 200 μM, XA 200 μM, QA 1 mM, immunoblot and zymography
  MMP2 expression and activity: dramatic increase
HASMCs; [5]
  expression and activity of MMP2: induced
  phosphorylation of Elk1 at Ser383: induced
MMP2 [3]
  MMP2 expression and activity in isolated aortas: significantly upregulated

## COc1ccccc1C(=O)NC(C)C(=O)O (stereo not drawn) [OMBA, o-Methoxybenzoylalanine]
ApoE−/− mice [4]; AngII-administered mice, compared to control mice
  Serum levels of tryptophan: decreased
ApoE−/− mice [4]; compared to AngII alone
  Levels of anthranilic acid (serum): elevated
  Levels of kynurenic acid (serum): elevated
ApoE−/− mice [1]; AngII-administered mice
  aortic weight to body weight ratio: lower
  maximal abdominal aortic diameter: lower
ApoE−/− mice [1]
  Incidence of AAA: 5/18
